Measured values as given in patent US10988465B2, “CXCR4 inhibitors and uses thereof” (X4 Pharmaceuticals, Inc., priority 2016, dated 2021).

Key:
[1] = in vitro; details: human, Caco-2, pH 7.4
In short: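 Caco-2 monolayers, checked by TEER with Lucifer yellow as marker, were dosed with 10 μM compound in HBSS pH 7.4 in A-to-B and B-to-A directions. Incubation was 90 min at 37° C, in duplicate. Samples were quantified by LC-MS/MS and Papp calculated.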

[2] = target: T1, CXCR-4 transfected U87 cell line (U87.CXCR4) (Homo sapiens, UniProt P61073); experiment: Intracellular CXCL-12-induced calcium mobilization assay (FLIPR); format: cell-based; details: U87.CXCR4 cells; CXCL-12 25-50 ng/mL; compound added 15 min before; read-out: IC50 CXCL-12 Ca^2+ flux U87.CXCR4+
T1 construct: expressed in transfected cells; host or cells: U87 (U87.CXCR4)
T1 sequence (P61073 whole entry): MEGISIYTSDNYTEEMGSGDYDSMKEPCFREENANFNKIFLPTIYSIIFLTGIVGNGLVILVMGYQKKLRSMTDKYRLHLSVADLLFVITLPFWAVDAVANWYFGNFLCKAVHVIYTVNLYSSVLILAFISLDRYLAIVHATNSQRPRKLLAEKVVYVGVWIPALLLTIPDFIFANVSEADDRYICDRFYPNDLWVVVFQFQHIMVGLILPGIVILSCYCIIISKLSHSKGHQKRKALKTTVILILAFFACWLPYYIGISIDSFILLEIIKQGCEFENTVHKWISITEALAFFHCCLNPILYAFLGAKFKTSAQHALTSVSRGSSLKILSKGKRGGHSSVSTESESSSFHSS
In short: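 U87 cells stably expressing human CXCR4, loaded with Fluo-2 AM (4 μM final) for 45 min at 37 °C in HBSS/20 mM HEPES/0.2% BSA, pH 7.4. Calcium flux triggered by CXCL-12 (25-50 ng/mL) was followed by FLIPR fluorescence over time at 37 °C.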

[3] = target: T2, Jurkat cells expressing CXCR4 (Homo sapiens, UniProt P61073); experiment: Chemokine (CXCL12-AF647) binding inhibition assay; details: CXCL12-AF647 25 ng/mL, read-out: IC50 CXCL-12 binding Jurkat
T2 construct: endogenous in cells; host or cells: Jurkat
T2 sequence (P61073 whole entry): as above
In short: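 Cells in HBSS, 20 mM HEPES, 0.2% BSA, pH 7.4, preincubated 15 min at room temperature with compound, then 25 ng/mL CXCL12-AF647 for 30 min. After washing and paraformaldehyde fixation, bound ligand read by flow cytometry; percent inhibition calculated from MFI relative to unlabeled and ligand-only controls.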

## Cc1cccnc1[C@@H]1CCC[C@H](c2nc3cccc(N4C[C@@H](C)N(C)[C@@H](C)C4)c3[nH]2)N1C [I-54]
[1]
  Papp A→B at 90 min, 10 μM: 10 to 30 ×10⁻⁶ cm/s
  Papp B→A at 90 min, 10 μM: 10 to 30 ×10⁻⁶ cm/s
  efflux ratio at 90 min, 10 μM: 0.1 to 10
[2]
  IC50: 0.01 to 100 nM
[3]
  IC50: 0.01 to 100 nM

## Cc1cccnc1[C@@H]1CCC[C@H](c2nc3cccc(N4CCN(C)C(C)(C)C4)c3[nH]2)N1C [I-55]
[1]
  Papp A→B at 90 min, 10 μM: 10 to 30 ×10⁻⁶ cm/s
  Papp B→A at 90 min, 10 μM: 10 to 30 ×10⁻⁶ cm/s
  efflux ratio at 90 min, 10 μM: 0.1 to 10
[2]
  IC50: 0.01 to 100 nM
[3]
  IC50: 0.01 to 100 nM

## Cc1cccnc1[C@@H]1CCC[C@H](c2nc3cccc(N4C5CCC4CN(C)C5)c3[nH]2)N1C [I-57]
[1]
  Papp A→B at 90 min, 10 μM: 10 to 30 ×10⁻⁶ cm/s
  Papp B→A at 90 min, 10 μM: 10 to 30 ×10⁻⁶ cm/s
  efflux ratio at 90 min, 10 μM: 0.1 to 10
[2]
  IC50: 0.01 to 100 nM
[3]
  IC50: 0.01 to 100 nM

## COc1cccnc1[C@@H]1CCC[C@H](c2nc3cccc(N4CCN(C)CC4)c3[nH]2)N1C [I-62]
[1]
  Papp A→B at 90 min, 10 μM: 0.1 to 10 ×10⁻⁶ cm/s
  Papp B→A at 90 min, 10 μM: 10 to 30 ×10⁻⁶ cm/s
  efflux ratio at 90 min, 10 μM: 0.1 to 10
[2]
  IC50: 0.01 to 100 nM
[3]
  IC50: 0.01 to 100 nM

## CN1CCN(c2cccc3nc([C@H]4CCC[C@@H](c5ncccc5OC(F)(F)F)N4C)[nH]c23)CC1 [I-63]
[1]
  Papp A→B at 90 min, 10 μM: 10 to 30 ×10⁻⁶ cm/s
  Papp B→A at 90 min, 10 μM: 0.1 to 10 ×10⁻⁶ cm/s
  efflux ratio at 90 min, 10 μM: 0.1 to 10
[2]
  IC50: 0.01 to 100 nM
[3]
  IC50: 100 to 1000 nM

## CN1CCN(c2cccc3nc([C@H]4CCC[C@@H](c5nccc6c5OCCO6)N4C)[nH]c23)CC1 [I-65]
[1]
  Papp A→B at 90 min, 10 μM: 10 to 30 ×10⁻⁶ cm/s
  Papp B→A at 90 min, 10 μM: 10 to 30 ×10⁻⁶ cm/s
  efflux ratio at 90 min, 10 μM: 0.1 to 10
[2]
  IC50: 100 to 1000 nM
[3]
  IC50: 100 to 1000 nM

## Cc1cccnc1[C@@H]1CCC[C@H](c2nc3cccc(N4CCC(N(C)C)CC4)c3[nH]2)N1C [I-67]
[1]
  Papp A→B at 90 min, 10 μM: 0.1 to 10 ×10⁻⁶ cm/s
  Papp B→A at 90 min, 10 μM: 10 to 30 ×10⁻⁶ cm/s
  efflux ratio at 90 min, 10 μM: 0.1 to 10
[2]
  IC50: 0.01 to 100 nM
[3]
  IC50: 0.01 to 100 nM

## Cc1ccnc([C@@H]2CCC[C@H](c3nc4cccc(N5CCN(C)CC5)c4[nH]3)N2C)c1 [I-71]
[1]
  Papp A→B at 90 min, 10 μM: 10 to 30 ×10⁻⁶ cm/s
  Papp B→A at 90 min, 10 μM: 10 to 30 ×10⁻⁶ cm/s
  efflux ratio at 90 min, 10 μM: 0.1 to 10
[2]
  IC50: ≥ 1000 nM
[3]
  IC50: 100 to 1000 nM

## CN1CCN(c2cccc3nc([C@H]4CCC[C@@H](c5ncccc5OC5CC5)N4C)[nH]c23)CC1 [I-72]
[1]
  Papp A→B at 90 min, 10 μM: 10 to 30 ×10⁻⁶ cm/s
  Papp B→A at 90 min, 10 μM: 10 to 30 ×10⁻⁶ cm/s
  efflux ratio at 90 min, 10 μM: 0.1 to 10
[2]
  IC50: ≥ 1000 nM
[3]
  IC50: 100 to 1000 nM

## Cc1cccnc1[C@@H]1CCC[C@H](c2nc3cccc(N4CCN(C)CC4=O)c3[nH]2)N1C [I-73]
[1]
  Papp A→B at 90 min, 10 μM: 0.1 to 10 ×10⁻⁶ cm/s
  Papp B→A at 90 min, 10 μM: 10 to 30 ×10⁻⁶ cm/s
  efflux ratio at 90 min, 10 μM: > 30
[2]
  IC50: 100 to 1000 nM
[3]
  IC50: 0.01 to 100 nM

## CCN1CCN(c2cccc3nc([C@H]4CCC[C@@H](c5ncccc5C)N4C)[nH]c23)CC1 [I-74]
[1]
  Papp A→B at 90 min, 10 μM: 10 to 30 ×10⁻⁶ cm/s
  Papp B→A at 90 min, 10 μM: 10 to 30 ×10⁻⁶ cm/s
  efflux ratio at 90 min, 10 μM: 0.1 to 10
[2]
  IC50: 0.01 to 100 nM
[3]
  IC50: 0.01 to 100 nM

## Cc1cccnc1[C@@H]1CCC[C@H](c2nc3cccc(N4CCN(C(C)C)CC4)c3[nH]2)N1C [I-75]
[1]
  Papp A→B at 90 min, 10 μM: 10 to 30 ×10⁻⁶ cm/s
  Papp B→A at 90 min, 10 μM: 0.1 to 10 ×10⁻⁶ cm/s
  efflux ratio at 90 min, 10 μM: 0.1 to 10
[2]
  IC50: 0.01 to 100 nM
[3]
  IC50: 0.01 to 100 nM

## Cc1ccnnc1[C@@H]1CCC[C@H](c2nc3cccc(N4CCN(C)CC4)c3[nH]2)N1C [I-84]
[1]
  Papp A→B at 90 min, 10 μM: 0.1 to 10 ×10⁻⁶ cm/s
  Papp B→A at 90 min, 10 μM: 10 to 30 ×10⁻⁶ cm/s
  efflux ratio at 90 min, 10 μM: 10 to 30
[2]
  IC50: ≥ 1000 nM
[3]
  IC50: 100 to 1000 nM

## CN1CCN(c2cccc3nc([C@H]4CCC[C@@H](c5nccc6ccccc56)N4C)[nH]c23)CC1 [I-88]
[1]
  Papp A→B at 90 min, 10 μM: 0.1 to 10 ×10⁻⁶ cm/s
  Papp B→A at 90 min, 10 μM: 0.1 to 10 ×10⁻⁶ cm/s
  efflux ratio at 90 min, 10 μM: 0.1 to 10
[2]
  IC50: 0.01 to 100 nM
[3]
  IC50: 0.01 to 100 nM
